Experimental data: patent US9326520B2, “Pest repellent comprising geranylacetone” (The University Court of the University of Aberdeen, priority 2006, dated 2016)
Values joined by “and” are separate entries in the source; they are usually repeats but may differ in a detail not shown here. Equal entries are not always repeated. “Also recorded” adds a separate entry of the source.

Assays:
Anopheles gambiae = assay: Laboratory-based repellency test, treated forearm in cage, protective efficacy (PE); format: in vivo; details: An. gambiae, landings over 3 min
Procedure: (§1) The mosquitoes were laboratory-reared using standard conditions at ICIPE, Duduville. 5-7 day old female mosquitoes that had been starved for 18 h but previously fed on 6% glucose solution were used. Eighteen cages (50×50×50 cm) were used with 25 female mosquitoes in each. Six human volunteers with no or little allergic reaction to bites were selected. Test solutions (0.5 ml in acetone) were applied to a volunteer's forearms and the hand was covered with a glove. Acetone alone (0.5 ml) served as a control on the other arm. The control arm was inserted into a cage and the number of landings were recorded over 3 min. The treated arm was then inserted as above. Repellency data was expressed as protective efficacy (PE) and was calculated by using the formula PE=(% control mean−% test mean/% control mean). The data were transformed and subjected to an ANOVA.
(§2) Each compound was tested at concentrations ranging from 0.0001% to 10%. […]

Culex quinquefasciatus = assay: as above; format: in vivo; details: for Mean % P.E ± S.E: landings over 3 min
Procedure: as §1, §2

C. impunctatus midges = assay: Field trial of repellency (WHO protocol), compounds on stockings worn on forearms of volunteers; format: in vivo, Culicoides impunctatus; details: for repellency compared with DEET at 1%: over 1 min, single compounds at 1%
Procedure: FIG. 6. Repellency of EAG-active human-derived compounds applied to the forearms of volunteers and tested on Culicoides impuctatus midges in the field. a) over 1 minute and b) over 5 minutes.
A field trial was made in the Ormsary estate, Argyllshire, during the summer 2005 in a region with an extremely high natural population of C. impunctatus. […] Compounds were applied to (nylon) stockings and worn on the forearms of volunteers and were tested at three concentrations in ethanol (1%, 0.01% and 0.0001%). All compounds and mixtures were compared against the WHO approved repellent diethyltoluamide (DEET) (1% and 40%).

[1] = test system: Aedes aegypti host-seeking female mosquitoes; assay: Y-tube olfactometer: response of mosquitoes to hand of attractive volunteer with and without chemical; format: in vivo
From the text: FIG. 5. […] (−1=1×10^−1 g μL^−1; −2=1×10^−2 g μL^−1, etc). Back transformed means+95% confidence intervals (calculated for a binomial distribution) from the logistic scale are shown.
A convenient bioassay was established following work by Geier et al. (1999)^17 using a Y-tube olfactometer in which mosquitoes, Ae. aegypti, could “choose” between volatile skin emanations and air alone, the “choice” being expressed as flight activity or relative attraction. Initially, the source of skin emanations was from individual hands of a series of human volunteers.
These compounds (from Sigma Aldrich) were tested individually at different concentrations in the olfactometer against Ae. aegypti. The upwind flight activity, relative attraction and probing activity (feeding) of the mosquitoes to the hand of an attractive volunteer with and without the chemicals was recorded.

Ae. aegypti = details: H. D. Douglas et al. J. Med. Entomol. 42(4): 647-651 (2005); cited from earlier work
[2] = hand of attractive volunteer with chemical vs without, data not shown

Row | SMILES | Mean % P.E ± S.E (Anopheles gambiae; 0.001 % Conc. in acetone) [%] | Mean % P.E ± S.E (Anopheles gambiae; 0.01 % Conc. in acetone) | Mean % P.E ± S.E (Anopheles gambiae; 0.1 % Conc. in acetone) | Mean % P.E ± S.E (Anopheles gambiae; 1 % Conc. in acetone) | Mean % P.E ± S.E (Anopheles gambiae; 10 % Conc. in acetone) | Mean % P.E ± S.E (Culex quinquefasciatus; 0.001 % Conc. in acetone) [%] | Mean % P.E ± S.E (Culex quinquefasciatus; 0.01 % Conc. in acetone) [%] | Mean % P.E ± S.E (Culex quinquefasciatus; 0.1 % Conc. in acetone) [%] | Mean % P.E ± S.E (Culex quinquefasciatus; 1 % Conc. in acetone) [%] | Mean % P.E ± S.E (Culex quinquefasciatus; 10 % Conc. in acetone) | Mean % P.E ± S.E (Culex quinquefasciatus; 0.0001 % Conc. in acetone) [%] | repellency compared with DEET at 1% (C. impunctatus midges) | also measured
1 | CCN(CC)C(=O)c1cccc(C)c1 [DEET, diethyltoluamide, reference compound] | 6.23 ± 1.7 | 20% and 20.65 ± 6.4% | 83% and 83.78 ± 3.9% | 100% and 100 ± 0% | 100% and 100 ± 0% | 7.6 ± 1.8 | 12.0 ± 1.7 | 76.9 ± 5.4 | 98.2 ± 1.1 | 100% and 100 ± 0% | – | – | –
2 | CC(=O)CCC=C(C)C [6-methyl-5-hepten-2-one, 6-Methyl-5-hepten-2-one] | 1.57 ± 11.2 | 19.2 ± 5.5% | 34.07 ± 6.6% | 35.73 ± 8.7% | 74.75 ± 6.1% | 12.7 | 21.8 | 30.1 | 49.7 ± 2.9 | 100.0 ± 0% | 8.0 | more effective than DEET; also recorded: significantly greater than DEET at 1% | Mean % P.E ± S.E (Anopheles gambiae; 0.0001 % Conc. in acetone): 0.85 ± 3.9%; repellency (C. impunctatus midges; 1 min time, 0.001%): significantly repellent; repellency (C. impunctatus midges; 1 min time, 0.01%): not repellent; repellency (C. impunctatus midges; 1 min time, 1%): strongly repellent; repellency (C. impunctatus midges; over 5 min): repellent only at 1%
3 | CCCCCCCCC=O [nonanal] | – | – | – | – | – | – | – | – | – | – | – | – | flight activity compared with the untreated hand ([1]; at only one dose): significantly greater flight activity than the untreated hand
4 | CCCCCCCC=O [octanal] | – | – | – | – | – | – | – | – | – | – | – | – | repellent for Ae. aegypti (described previously) (Ae. aegypti): described previously as a repellent
5 | CC(=O)CCC=C(C)CCC=C(C)C [geranylacetone, 6,10-dimethyl-5,9-undecadien-2-one] | 7.25 ± 9.5 | 11.17 ± 12.9% | 30.13 ± 11% | 76.97 ± 5.9% | 100% | 10 | 23.7 | 33.2 ± 4.5 | 84.1 ± 4.2 | 100 ± 0% | 4.8 | significantly greater than DEET at 1% | Mean % P.E ± S.E (Anopheles gambiae; 10 % Conc. in acetone, listed as geranylacetonedecanal): 100 ± 0%; Mean % P.E ± S.E (Culex quinquefasciatus; 10 % Conc. in acetone, listed as Geranylacetone): 100%; repellency (C. impunctatus midges; all concentrations tested (1%, 0.01% and 0.0001% in ethanol)): effective at all concentrations tested; % repellency compared with DEET (C. impunctatus midges; full 5 min testing period, single compound at 1%): higher % repellency than DEET; these differences were not significant; probing activity (feeding) [1, 2]: significantly reduced; relative attraction [1, 2]: caused a reduction in relative attraction
6 | CCCCCCCCCC=O [decanal] | – | – | – | – | – | – | – | – | – | – | – | – | ranking of treatments (repellency) (Culex quinquefasciatus): most effective treatment
